Results from patent US20190038556A1, “FORMULATIONS AND CARRIER SYSTEMS INCLUDING COMPOUND INTERACTIVE DOMAINS” (University of Pittsburgh - Of The Commonwealth System of …, priority 2012, published 2019).

Legend:
[1] = test system: PC-3 human prostate cancer cell line; assay: In vitro cytotoxicity (MTT), PC-3; format: cell-based; settings: PC-3, 72 h, FIG. 14B
Protocol: (§1) The tumor-inhibitory efficacy of PEG-Fmoc/PTX was also investigated both in vitro and in vivo. In vitro cytotoxicity of PEG-Fmoc/PTX was evaluated in mouse metastatic breast cancer cell line 4T1.2, and two human prostate cancer cell lines, PC-3 and DU145. […] Without limitation to any mechanism, the increased cytotoxicity of PEG-Fmoc/PTX may, for example, be attributable to facilitated entry of PTX into tumor cells.
(§2) 2(b)(viii). In Vitro Cytotoxicity. Mouse metastatic breast cancer cell line 4T1.2, and two human prostate cancer cell lines PC-3 and DU145 were utilized to evaluate the in vitro cytotoxicity of PTX/PEG-Fmoc2. Cells were seeded in 96-well plates at 1000 (4T1.2), 2000 (DU145) and 3000 (PC-3) cells per well. […] Seventy-two h later, 20 μL of 3-(4,5-dimethylthiazol-2-yl)-2,5-diphenyltetrazoliumbromide (MTT, 5 mg/mL) was added into each well. Following incubation for 4 h, the medium was removed and 150 μL of DMSO was added to each well to solubilize the formazan crystal. The absorbance of each well was detected at 550 nm with a reference wavelength at 630 nm using a microplate reader, and cell viability was calculated based on the formula below. Untreated cells were included as a control.
(§3) % cytotoxicity=[1−(ODtreat−ODblank)/(ODcontrol−ODblank)]×100%

[2] = test system: 4T1.2 mouse metastatic breast cancer cell line; assay: In vitro cytotoxicity (MTT), 4T1.2; format: cell-based; settings: 4T1.2, 72 h, FIG. 14A
Protocol: as §1, §2, §3

[3] = test system: DU145 human prostate cancer cell line; assay: In vitro cytotoxicity (MTT), DU145; format: cell-based; settings: DU145, 72 h, FIG. 14C
Protocol: as §1, §2, §3

[4] = CMC measurement with pyrene as a fluorescence probe; format: physicochemical
Protocol: (§4) The size distribution of PTX/PEG-Fmoc2 mixed nanomicelles was examined by dynamic light scattering (DLS) via a Malvern Zeta Nanosizer, and the morphology was observed by transmission electron microscopy (TEM) after negative staining. The CMC measurement was performed as reported before with pyrene as a fluorescence probe. To quantify PTX in the micelles, PTX was extracted by methanol, and detected by Waters Alliance 2695-2998 high-performance liquid chromatography (HPLC) system with a RP-18 column (250 mm×4.6 mm) equipped with a UV detector at 227 nm at room temperature. A mixture of methanol/water (80:20, v/v) was used as mobile phase at a flow rate at 0.8 mL/min. The drug loading capacity (DLC) and efficiency (DLE) were calculated as set forth above.

[5] = Size distribution of PTX/PEG-Fmoc2 mixed nanomicelles (DLS); format: physicochemical
Protocol: 2(b)(iv). Preparation and biophysical characterization of PTX/PEG-Fmoc2 mixed micelles. Thin-film hydration method was utilized for preparation of PTX/PEG-Fmoc2 mixed nanomicelles. PEG-Fmoc2 and PTX in chloroform were well mixed in a glass tube at designated molar ratios. A thin film of carrier/drug mixture was generated through removal of the organic solvent by a gentle stream of nitrogen. The trace amount of solvent was further removed via vacuum for 2 h. Then the film was hydrated and suspended in DPBS by vortex to obtain a clear solution of PTX/PEG-Fmoc2 mixed nanomicelles. Any non-entrapped drug was removed by filtration through 220 nm PVDF syringe filter.
as §4

rat red blood cells = assay: Hemolysis assay; format: cell-based; settings: 2 hrs at 37° C., 5 mM
Protocol: We also examined the hemolytic activity of plain micelles prepared from PEG-lipid and lipopeptide conjugates on rat red blood cells and compared the results to two widely used ethoxylated nonionic surfactants: Triton X-100 and Tween 80. In the studies of FIG. 6, rat red blood cells (1%) were incubated with surfactants at indicated concentrations for 2 hrs at 37° C. After such incubation, supernatants were carefully withdrawn, measured for at OD540 nm, and calculated based on OD value under a condition that total hemolysis occurred.
1(j). Hemolysis assay. Rat red blood cells (RBCs) were isolated from freshly collected rat blood with added anticoagulant by washing three times with 10 volumes of cold PBS (1500 rpm for 10 min). RBCs were then diluted to 2% w/v with ice cold DPBS and utilized immediately for the hemolysis assay. One mL of diluted RBC suspension was treated with various concentrations (0-5 mM) of PEG-lipopeptides, Tween 80, and Triton X-100, respectively, and then incubated at 37° C. in an incubator shaker for 2 h. The samples were centrifuged at 1500 rpm for 10 min at 4° C., and 100 μL of supernatant from each sample was transferred into a 96-well plate. The release of hemoglobin was determined by the absorbance at 540 nm using a micro-plate reader. […] Hemoglobin release was calculated as (ODsample−ODnegative control)/(ODpositive control−ODnegative control)×100%.

[6] = Oxidation of ECGC in PBS on exposure to air; format: physicochemical; settings: exposed to air, free 24 hrs, complex over a week
[7] = Particle size measurement by laser dynamic light scattering; format: physicochemical; settings: agent formulated with multi-chain PEGylated micelle-forming surfactant
Protocol: 1(f). Particle size measurement. […] Samples were further diluted ten times in distilled water and sizes were measured by laser dynamic light scattering using a particle sizer (Zetasizer Nano ZS instrument, available from Malvern Instruments Ltd of Worcestershire, United Kingdom). Size measurement of emulsion particles were conducted using a Coulter N4 particle sizer after a 100-fold dilution in saline.

[8] = Solubilization of tested agents with multi-chain PEGylated micelle-forming surfactants (Table 1)
Description: The exact mechanism for the protection of ECGC against oxygen in the form of complex is unknown.

[9] = Micelle-facilitated solubilization of JP4-039; format: physicochemical; settings: at comparable molar ratios
Protocol: In the solubilization studies of FIG. 4, various amounts of tetra chain PEG5,000-lysyl-[lysyl-(α-Fmoc-ε-oleyol-lysine)2]2 were mixed with JP4-039 in CHCl3 followed by solvent evaporation, the drug-loaded micelles were prepared by hydration in saline. The amounts of solubilized JP4-030 were determined by OD448 measurements from supernatant.
Lipopeptides, amino acid derivatives or nitroxide compounds were first dissolved in chloroform. The solutions were aliquoted to a glass test tube, mixed well, then blown with a constant nitrogen stream to remove the bulk of the solvent. The residual solvent was removed by applying high vacuum for 2 hrs. To determine micelle-facilitated solubilization of JP4-039, various molar ratios of surfactant to drug were applied to make surfactant-drug mixture in water (final concentration of JP4-039 was 5 mg/mL). After at least 30 minutes, the samples were briefly centrifuged at 13,000 rpm. One half of the supernatants was recovered, to which an equal volume of ethanol was added to dissolve/disrupt micelle drug complexes. The amounts of drug in the samples were quantitated using OD448 nm.

In the case of “PEG5K-lysyl-(α-Fmoc-ε-t-Boc-lysine)2 [PEG-Fmoc]”, the “Cytotoxicity (tumor cell inhibition)” value [1] is reported as “did not show apparent toxicity”, the “Cytotoxicity (tumor cell inhibition)” value [2] is reported as “did not show apparent toxicity” and the “Cytotoxicity (tumor cell inhibition)” value [3] is reported as “did not show apparent toxicity”. The CMC [4] was 5.244 µM, the “Micelle size in aqueous solution” value ([5]; carrier alone) was 25˜30 nm and the PDI ([5]; drug-free carrier 5 mg/mL) was 0.488. The Particle size ([5]; drug-free carrier 5 mg/mL) was 28.55 ± 0.27 nm.
Work on Triton X-100 yielded a Hemolysis (rat red blood cells) of 100%.
For `O=C(O[C@@H]1Cc2c(O)cc(O)cc2O[C@@H]1c1cc(O)c(O)c(O)c1)c1cc(O)c(O)c(O)c1` [EGCG, epigallocatechin gallate], the Oxidation on storage [6] was “readily oxidized”, the “Size +/− SD” value [7] was 89.9 +/− 12 nm and the solubility ([8]; tested agent itself, Table 1) was “freely”. The Soluble at ([8]; with multi-chain PEGylated micelle-forming surfactant) was 5 mg/mL.
With “methoxy PEG2,000-carbamoyl-1-palmitoyl-2-oleoyl-sn-glycero-3-phosphotidylethanolamine [compound 8]” the “Activity in forming a stable JP4-039-containing micelle solution” value [9] was “inactive”.
